Assay results: article PMC6798376, “Production of galactitol from galactose by the oleaginous yeast Rhodosporidium toruloides IFO0880” (Biotechnology for Biofuels, 2019)

Columns and labels:
[1] = biological target: T1, AldR (aldose reductase; also printed AdhR) (Rhodotorula toruloides, UniProt A0A2S9ZVX5); assay: spectrophotometric NADPH assay at […] nm; format: biochemical; details: 10 mM galactose as co-substrate; 20 mM Tris-HCl pH 7.0; 25 °C
[2] = biological target: T1, AldR (aldose reductase; also printed AdhR); assay: spectrophotometric NADPH assay at […] nm; product galactitol by HPLC; format: biochemical; details: NADPH as coenzyme; 10 mM galactose; 20 mM Tris-HCl pH 7.0; 25 °C

T1 sequence (A0A2S9ZVX5 entry or part of it): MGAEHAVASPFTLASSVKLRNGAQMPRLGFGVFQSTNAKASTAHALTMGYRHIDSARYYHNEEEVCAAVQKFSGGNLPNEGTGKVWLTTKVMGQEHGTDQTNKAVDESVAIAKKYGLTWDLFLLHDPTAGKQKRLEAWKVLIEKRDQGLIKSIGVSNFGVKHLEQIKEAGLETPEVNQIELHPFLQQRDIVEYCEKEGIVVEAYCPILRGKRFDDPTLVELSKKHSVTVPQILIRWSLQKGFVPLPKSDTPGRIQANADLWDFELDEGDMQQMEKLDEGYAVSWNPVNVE

`NC(=O)C1=CN([C@@H]2O[C@H](COP(=O)(O)OP(=O)(O)OC[C@H]3O[C@@H](n4cnc5c(N)ncnc54)[C@H](OP(=O)(O)O)[C@@H]3O)[C@@H](O)[C@H]2O)C=CC1` [NADPH] was tested, and the “spectrophotometric NADPH assay at 340 nm” value [1] was “AldR is an NADPH-dependent enzyme, like other galactose reductases”.

For `OC[C@H]1OC(O)[C@H](O)[C@@H](O)[C@H]1O` (some centres unmarked) [galactose], the “spectrophotometric NADPH assay at 340 nm; product galactitol by HPLC” value [2] was “The recombinant enzyme exhibited activity against galactose with NADPH as the coenzyme”.
